Reference: patent publication US9828375B2, “4-position substituted pyrazolopyrimidine derivative, and use thereof in drug preparation” (Guangxi Wuzhou Pharmaceuticals (Group) Co., Ltd., priority 2012, dated 2017)
pIC50: −log10 of the molar value.

Experiments:
[1] = biological target: c-KIT (Homo sapiens, UniProt P10721); test: Kinase inhibition activity test, isotope labeling: c-KIT; type: biochemical; settings: for Activity inhibition rate c-Kit (h) / inhibition at 10 µM: test compound at a concentration of 10 μM; for inhibition at 10 µM: read-out: Activity inhibition rate c-Kit (h); for pIC50: ATP 200 μM, read-out: c-KIT IC50 value (inhibitory activity value)
Description: The purpose of this experiment was to test the inhibitory activity of the compound of the invention for in vitro kinase with the isotope labeling method (the γ phosphate group on ATP was labeled). In this experiment, the in vitro activity inhibition of such kinases as FLT3, VEGFR2, FLT1, FLT4, RET, c-RAF, B-RAF, c-KIT, PDGFα, PDGFβ, FGFR2, FGFR1, EphA2, EphB2, SRC, ABL, ALK and Met was tested respectively. Staurosporine was reference molecule (or referred to as positive control). The kinase inhibition activity of the test compound was expressed by half-inhibitory concentration (IC50) or the kinase activity inhibition rate of the test compound at a concentration of 10 μM. The IC50 value could be obtained by calculating the kinase activity inhibition rate of the test compound at different concentrations.
20 mM 3-(N-morpholinyl)propanesulfonic acid (MOPS); 1 mM ethylenediaminetetraacetic acid (EDTA), 0.01% Brij 35 (Brij-35), 5% glycerol, 0.1% mercaptoethanol, 1 mg/mL bovine serum albumin (BSA), 10 mM manganous dichloride solution (MnCl2), 0.1 mg/mL glutamic acid/tyrosine (4:1) polypeptide (poly(Glu, Tyr)4:1), 50 μM EAIYAAPFAKKK (substrate of FLT3), 0.33 mg/mL myelin basic protein (substrate of VEGFR2), 250 μM KKKSPGEYVNIEFG (substrate of FLT1(h)), 500 μM GGEEEEYFELVKKKK (substrate of FLT4(h)), 250 μM KKKSPGEYVNIEFG (substrate of RET), 0.66 mg/mL myelin basic protein (substrate of C-RAF), 250 μM GGMEDIYFEFMGGKKK (substrate of c-Kit), 250 μM GGMEDIYFEFMGGKKK (substrate of PDGFα), 250 μM KKKSPGEYVNIEFG (substrate of FGFR1), […] GGEEEEYFELVKKKK (substrate of SRC), 50 μM EAIYAAPFAKKK (substrate of ABL), 250 μM KKKSPGEYVNIEFG (substrate of ALK), 250 μM KKKSPGEYVNIEFG (substrate of Met(h)), 10 mM magnesium acetate and γ-^33 P-ATP solution, stop buffer (3% phosphate buffer), washing buffer (75 mM phosphate solution), methanol, Filtermat A membrane, FLT3, VEGFR2, FLT3, VEGFR2, FLT1, FLT4, RET, c-RAF, B-RAF, c-KIT, PDGFRα, PDGFRβ, FGFR2, FGFR1, EphA2, EphB2, SRC, ABL, ALK, Met and other kinases, and the test compounds.
Buffers (8 mM MOPS with pH value of 7.0, 0.2 mM EDTA and 10 mM MnCl2), (5-10 mU) kinases to be tested (FLT3, VEGFR2, FLT1, FLT4, RET, c-RAF, B-RAF, c-KIT, PDGFRα, PDGFRβ, FGFR2, FGFR1, EphA2, EphB2, SRC, ABL, ALK and Met), substrates of kinases to be tested (refer to experimental materials), 10 mM magnesium acetate and γ-^33 P-ATP solution, and test compounds at different concentrations were added to a reaction tube orderly. […] Reaction was terminated with 5 μL 3% phosphate buffer finally, and 10 μL reaction solution was titrated to the Filtermat A membrane; solution was washed for 3 times with 75 mM phosphate solution with each time lasting 5 minutes, and then washed once with methanol. Finally, the Filtermat A membrane was dried, and scintillation counting was performed on the membrane, with scintillation count reflecting the phosphorylation degree of the substrates, so that the activity inhibition of kinase could be characterized.

[2] = system: human leukemia cell line MV4-11; test: In vitro tumor cell proliferation inhibition (MTT): MV4-11; type: cell-based
From the text: (§1) The purpose of the experiment was to test the inhibition activity of the compounds of the invention for in vitro human tumor cell proliferation by the methyl thiazolyl tetrazolium (MTT) colorimetry.
(§2) Main reagents: RPMI-1640, fetal bovine serum, pancreatin, etc. were purchased from Gibco BRL Company (Invitrogen Corporation, USA) and IMDM medium that was purchased from American Type Culture Collection (ATCC). Methyl thiazolyl tetrazolium (MTT) and dimethyl sulfoxide (DMSO) were products from Sigma Company (USA). Pyrazolopyrimidine derivatives were composed by the inventor. During in vitro experiment, 100% DMSO was prepared into 10 mM storage solution, the solution was stored in a refrigerator at −20° C. for future use, and was diluted to the required concentration with complete culture solution before use.
(§3) Cell line and culture: Human leukemia cell line MV4-11, Jurkat, K562, human thyrophyma cell line TT, human gastric carcinoma cell line MKN-45, human malignant melanoma cell lines A375 and A875, human pancreatic carcinoma cell line panc-1, human cervical carcinoma cell line HELA, human colorectal carcinoma cell line HCT116, etc. were purchased from American type culture collection and were preserved by this laboratory. All leukemia cell lines (except MV4-11), gastric carcinoma cell lines and thyrophyma cell lines were cultured in RPMI-1640 complete medium containing 10% fetal bovine serum, 100 U/mL penicillin and 100 μg/mL streptomycin at 37° C. in 5% CO2. The remaining cell lines were cultured in DMEM complete medium containing 10% fetal bovine serum (containing 20% MV4-11 cell), 100 U/mL penicillin and 100 µg/mL streptomycin at 37° C. in 5% CO2.
(§4) Cell suspension with cell concentration of 1-2×10^4/mL was adjusted with the complete cell medium and inoculated in a 96-well plate, with each well filled with 200 μl cell suspension that was cultured overnight. On the next day, supernatant was sucked and abandoned (supernatant was sucked upon centrifugation of suspension cells), and then cells were processed with test compounds at gradient concentrations respectively. Meanwhile, a negative control group free from drug and a solvent control group with equal volume were set, and the DMSO concentration was 0.1%. Each dose group was provided with three wells and cultured at 37° C. in 5% CO2. After 72 hours, 20 μl 5 mg/mL MTT reagent was added to each well, and cultured for another 2 to 4 hours, the supernatant was abandoned; 150 μL DMSO was added to each well again, vibrated and mixed evenly for 15 minutes; the absorbance (A) values (proportional to living cell amount) were determined with a microplate reader (λ=570 nm) and averaged. […] Experiment was repeated for 3 times at least. Experimental data were expressed with means, data statistics were tested by t, and P<0.05 means that difference has a statistical significance. The cell proliferation inhibition effects of all compounds as follows are expressed by IC50 or inhibition rate.

[3] = system: human gastric carcinoma cell line MKN-45; test: In vitro tumor cell proliferation inhibition (MTT): MKN-45; type: cell-based
From the text: as §1, §2, §3, §4

[4] = system: human malignant melanoma cell line A875; test: In vitro tumor cell proliferation inhibition (MTT): A875; type: cell-based
From the text: as §1, §2, §3, §4

[5] = system: human leukemia cell line Jurkat; test: In vitro tumor cell proliferation inhibition (MTT): Jurkat; type: cell-based; settings: 72 hours
From the text: as §1, §2, §3, §4

[6] = system: human leukemia cell line K562; test: In vitro tumor cell proliferation inhibition (MTT): K562; type: cell-based
From the text: as §1, §2, §3, §4

[7] = system: human cervical carcinoma cell line HELA; test: In vitro tumor cell proliferation inhibition (MTT): HELA; type: cell-based; settings: 72 hours
From the text: as §1, §2, §3, §4

c-KIT, sequence (P10721 26-976): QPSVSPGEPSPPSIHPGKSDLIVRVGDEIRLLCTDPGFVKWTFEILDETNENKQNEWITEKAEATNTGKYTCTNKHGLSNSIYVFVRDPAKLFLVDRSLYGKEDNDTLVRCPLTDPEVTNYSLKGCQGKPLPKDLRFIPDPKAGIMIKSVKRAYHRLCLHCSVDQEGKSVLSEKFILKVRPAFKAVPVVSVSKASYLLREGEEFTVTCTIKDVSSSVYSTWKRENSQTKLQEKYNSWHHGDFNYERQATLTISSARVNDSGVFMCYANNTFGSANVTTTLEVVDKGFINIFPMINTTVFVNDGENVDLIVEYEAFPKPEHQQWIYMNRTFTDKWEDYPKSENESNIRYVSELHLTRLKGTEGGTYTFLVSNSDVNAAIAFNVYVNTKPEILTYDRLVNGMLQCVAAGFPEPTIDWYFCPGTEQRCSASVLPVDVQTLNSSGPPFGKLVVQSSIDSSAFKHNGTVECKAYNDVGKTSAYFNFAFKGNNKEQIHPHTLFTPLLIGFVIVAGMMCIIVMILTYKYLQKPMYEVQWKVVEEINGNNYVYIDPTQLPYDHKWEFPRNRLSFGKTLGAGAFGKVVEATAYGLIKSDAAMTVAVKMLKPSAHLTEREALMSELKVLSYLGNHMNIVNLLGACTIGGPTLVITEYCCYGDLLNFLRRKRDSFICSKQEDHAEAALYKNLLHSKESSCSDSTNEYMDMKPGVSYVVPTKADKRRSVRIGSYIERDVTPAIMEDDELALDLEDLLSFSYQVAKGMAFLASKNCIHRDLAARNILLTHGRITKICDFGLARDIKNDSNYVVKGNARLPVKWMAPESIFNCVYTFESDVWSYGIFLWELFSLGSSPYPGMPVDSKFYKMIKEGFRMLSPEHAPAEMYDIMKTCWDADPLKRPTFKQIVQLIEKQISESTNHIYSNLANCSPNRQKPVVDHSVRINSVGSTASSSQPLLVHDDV

Row | Structure (SMILES) | Activity inhibition rate c-Kit (h) [1] | pIC50 ([2]; 72 hours) | pIC50 ([3]; 72 hours) | pIC50 ([4]; 72 hours) | pIC50 [5] | pIC50 ([6]; 72 hours) | pIC50 [7] | inhibition at 10 µM [1] | pIC50 ([2]; Homo sapiens, MV4-11, 72 h) | pIC50 ([3]; Homo sapiens, MKN-45, 72 hours) | pIC50 ([4]; Homo sapiens, A875, 72 hours) | pIC50 ([5]; Homo sapiens, Jurkat) | pIC50 ([6]; Homo sapiens, K562, 72 hours) | pIC50 ([7]; Homo sapiens, HeLa) | pIC50 [1]
1 | CC(C)c1cccc(NC(=O)Nc2ccc(Oc3ncnc4[nH]ncc34)c(F)c2)c1 [4a-7, 1-(4-((1H-pyrazolopyrimidine-4-yl)oxy)-3-fluorophenyl)-3-(3-isopropylphenyl)urea] | 98% | 7.96 | > 4.30 | > 4.30 | > 4.30 | > 4.30 | > 4.30 |  |  |  |  |  |  |  | 
2 | O=C(Nc1ccccc1)Nc1ccc(Oc2ncnc3[nH]ncc23)cc1 [4a-15, 1-(4-((1H-pyrazolopyrimidine-4-yl)oxy)phenyl)-3-phenylurea] | 66% | 6.49 | > 4.30 | > 4.30 | > 4.30 | > 4.30 | > 4.30 |  |  |  |  |  |  |  | 
3 | O=C(Nc1ccc(Oc2ncnc3[nH]ncc23)cc1)Nc1ccc(N2CCOCC2)cc1 [4a-16, 1-(4-((1H-pyrazolopyrimidine-4-yl)oxy)phenyl)-3-(4-morpholinylphenyl)urea] |  |  |  |  |  |  |  | 77% | 7.05 | 5.49 | > 4.30 | > 4.30 | > 4.30 | > 4.30 | 
4 | C[C@H](NC(=O)Nc1ccc(Oc2ncnc3[nH]ncc23)cc1)c1ccccc1 [4a-18, (S)-1-(4-((1H-pyrazolopyrimidine-4-yl)oxy)phenyl)-3-(1-phenethyl)urea] | 100% | 6.95 | > 4.30 | > 4.30 | 5.00 to 5.52 | > 4.30 | > 4.30 |  |  |  |  |  |  |  | 
5 | O=C(Nc1cccc(Nc2ncnc3[nH]ncc23)c1)Nc1ccc(F)c(Cl)c1 [4b-1] |  |  |  |  |  |  |  | > 30% | > 4.30 | > 4.30 | > 4.30 | > 4.30 | 5.46 | > 4.30 | 
6 | C[C@@H](NC(=O)Nc1ccc(Nc2ncnc3[nH]ncc23)cc1)c1ccccc1 [4b-2, (R)-1-(4-(1H-pyrazolopyrimidine-4-amido)phenyl)-3-(1-phenethyl)urea] |  | 5.10 |  |  |  |  |  | > 30% |  | > 4.30 | > 4.30 | > 4.30 | > 4.30 | > 4.30 | 
7 | COc1cccc(NC(=O)Nc2ccc(Nc3ncnc4[nH]ncc34)cc2)c1 [4b-3] |  |  |  |  |  |  |  | > 30% | 5.78 | > 4.30 | > 4.30 | > 4.30 | > 4.30 | > 4.30 | 

Now from value to molecule:

Row | Activity inhibition rate c-Kit (h) [1] | pIC50 ([2]; 72 hours) | pIC50 ([3]; 72 hours) | pIC50 ([4]; 72 hours) | pIC50 [5] | pIC50 ([6]; 72 hours) | pIC50 [7] | inhibition at 10 µM [1] | pIC50 ([2]; Homo sapiens, MV4-11, 72 h) | pIC50 ([3]; Homo sapiens, MKN-45, 72 hours) | pIC50 ([4]; Homo sapiens, A875, 72 hours) | pIC50 ([5]; Homo sapiens, Jurkat) | pIC50 ([6]; Homo sapiens, K562, 72 hours) | pIC50 ([7]; Homo sapiens, HeLa) | pIC50 [1] | Structure (SMILES)
8 | 29% | 7.37 | 5.12 | > 4.30 | > 4.30 | 5.57 | 5.30 |  |  |  |  |  |  |  |  | O=C(Nc1ccc(C(F)(F)F)cc1)Nc1ccc(Oc2ncnc3[nH]ncc23)c(F)c1 [4a-9, 1-(4-((1H-pyrazolopyrimidine-4-yl)oxy)-3-fluorophenyl)-3-(4-(trifluoromethyl)phenyl)urea]
9 | 49% | 8.05 | 5.28 | > 4.30 | 5.00 | > 4.30 | > 4.30 |  |  |  |  |  |  |  |  | O=C(Nc1ccc(Oc2ncnc3[nH]ncc23)c(F)c1)Nc1ccc(Cl)c(C(F)(F)F)c1 [4a-10, 1-(4-((1H-pyrazolopyrimidine-4-yl)oxy)-3-fluorophenyl)-3-(4-chloro-3-(trifluoromethyl)phenyl)urea]
10 | 58% | 7.77 | 5.08 | > 4.30 | > 4.30 | 5.04 | > 4.30 |  |  |  |  |  |  |  |  | O=C(Nc1ccc(Oc2ncnc3[nH]ncc23)cc1)Nc1cc(C(F)(F)F)cc(C(F)(F)F)c1 [4a-12, 1-(4-((1H-pyrazolopyrimidine-4-yl)oxy)phenyl)-3-(3,5-bis(trifluoromethyl)phenyl)urea]
11 | 85% | 7.74 | 5.17 | > 4.30 | > 4.30 | > 4.30 | > 4.30 |  |  |  |  |  |  |  |  | O=C(Nc1ccc(Oc2ncnc3[nH]ncc23)cc1)Nc1ccc(C(F)(F)F)cc1Cl [4a-13]
12 | >90% | 9.52 | 5.89 | 5.00 to 5.52 | > 4.30 | 5.00 to 5.52 | 5.00 to 5.52 |  |  |  |  |  |  |  | 6.04 | CC(C)(C)c1cc(NC(=O)Nc2ccc(Oc3ncnc4[nH]ncc34)cc2)on1 [4a-25]
13 |  |  |  |  |  |  |  | > 90% | 9.52 | 5.95 | 5.00 to 5.52 | 5.00 to 5.52 | 5.00 to 5.52 | 5.00 to 5.52 |  | CC(C)(C)c1cc(NC(=O)Nc2ccc(Oc3ncnc4[nH]ncc34)cc2)no1 [4a-26]
14 |  |  |  |  |  |  |  | > 90% | 8.92 | 5.00 to 5.52 | > 4.30 | 5.00 to 5.52 | 5.00 to 5.52 | > 4.30 |  | O=C(Nc1ccc(Oc2ncnc3[nH]ncc23)cc1)Nc1cc(C(F)(F)F)on1 [4a-28]
15 | >90% | 9.40 | > 4.30 | 5.00 to 5.52 | 5.21 | 5.00 to 5.52 | 5.00 to 5.52 |  |  |  |  |  |  |  | 7.06 | CC(C)(C)c1cc(NC(=O)Nc2ccc(Oc3ncnc4[nH]ncc34)c(F)c2)no1 [4a-31]
